Assay: water solubility of complex carbohydrate agents
Assay type: physicochemical
Description: Specific solubilities are: dextran, 50 mg/ml; hydroxymethylcellulose, 10 mg/ml; cellulose, 0 mg/ml; oat beta glucan, 20 mg/ml.

solubility [mg/mL] | Substance
10 | hydroxymethylcellulose
20 | oat beta glucan
